44 molecules from patent US20240360114A1 (SIRONAX LTD., priority 2021, published 2024) can be followed below.

Broadly, the EC50 is the concentration at which the effect is half-maximal. The low end stands for higher potency in that assay, the high end for lower potency in that assay.

Structures are written as SMILES.

For one test, the system named is HT-1080 cells. The test can be described thus: HT-1080 cell viability assay (ferroptosis induced by RSL3, Cell Titer-Glo). It is filed as cell-based. The following applies: Homo sapiens, HT-1080, 20 h, ferroptosis inducer RSL3, 20 hours, ferroptosis inhibitory activity, Table 2. In short, it runs like this:
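Cells seeded overnight, then co-treated with RSL3 and compound (3-fold, 10-point dilution, top 1.1 μM) for 20 hours. Viability by CellTiter-Glo luminescence, normalized to untreated controls; EC50 from sigmoidal non-linear regression.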
Background: In ATP-based viability assays light output follows the ATP content of the culture.
Consider `CC1(C)CCC(c2ccc(NC3CCC(CCNC(N)=O)CC3)cc2)CC1` (centres unmarked) [Compound 243], for which the EC50 fell in the range of 0.1 to 100 nM.

Regarding `CC1CCC(Nc2ccc(C3CCCCC3)cc2)CC1` (centres unmarked) [Compound 269, 4-cyclohexyl-N-(4-methylcyclohexyl)aniline], the EC50 was in the range of 100 to 1000 nM.

As to `Cc1cc(C)c(NC2CCC(CN)CC2)c(C)c1` (centres unmarked) [Compound 210, N-[4-(aminomethyl)cyclohexyl]-2,4,6-trimethylaniline], the EC50 was in the range of 1000 to 10000 nM.

`CC(C)(C)c1ccc(NC2CCC(NCCCO)CC2)cc1` (centres unmarked) [Compound 317, 3-((4-((4-(tert-butyl)phenyl)amino)cyclohexyl)amino)propan-1-ol] registered a half-maximal effective concentration (EC50) of 0.1 to 100 nM.

`CC[C@@H]1CN(c2ccc(NC3CC4(CC(N)C4)C3)c(C)n2)C[C@H](CC)O1` (some centres unmarked) [Compound 549] displayed an EC50 of 0.1 to 100 nM.

As for `CC1CN(c2ccc3cc(NC4CC5(CC(N)C5)C4)ccc3n2)CC(C)N1CC(F)(F)F` (centres unmarked) [Compound 567, N2-(2-(3,5-dimethyl-4-(2,2,2-trifluoroethyl)piperazin-1-yl)quinolin-6-yl)spiro-[3.3]heptane-2,6-diamine], the EC50 was in the range of 0.1 to 100 nM.

Regarding `CC1(C)CCC(c2ccc(NCCN3CCCC3)cc2)CC1` [Compound 101, 4-(4,4-dimethylcyclohexyl)-N-(2-(pyrrolidin-1-yl)ethyl)aniline], the EC50 lay in the range of 0.1 to 100 nM.

`CC1CCN(c2ccc(NC3CCC(N)CC3)cc2)CC1` (centres unmarked) [Compound 60, N1-(4-(4-methylpiperidin-1-yl)phenyl)cyclohexane-1,4-diamine] gave an EC50 of 0.1 to 100 nM.

Molecule `COCCCCOc1cc(NC2CCC(N)C2)ccc1C(C)(C)C` (centres unmarked) [Compound 302, N1-(4-(tert-butyl)-3-(4-methoxybutoxy)phenyl)cyclopentane-1,3-diamine] gave an EC50 of 0.1 to 100 nM.

In turn, `Cc1nc(N2C[C@@H](C)N(CC(F)(F)F)[C@@H](C)C2)ccc1NC1CCC(N)C1` (stereo partly drawn) [Compound 541, N1-(6-((3R,5S)-3,5-dimethyl-4-(2,2,2-trifluoroethyl)piperazin-1-yl)-2-methylpyridin-3-yl)cyclopentane-1,3-diamine] registered an EC50 of 0.1 to 100 nM.

The molecule `Cc1nc(N2CCC3(CCOCC3)C2)ccc1NC1CC2(CC(N)C2)C1` (centres unmarked) [Compound 507, N2-(2-methyl-6-(8-oxa-2-azaspiro[4.5]decan-2-yl)pyridin-3-yl)spiro[3.3]heptane-2,6-diamine] showed an EC50 of 100 to 1000 nM.

`CC(C)(C)c1ccc(NC[C@H]2CC[C@@H](N)CC2)cc1` [Compound 288, N-(((1s, 4s)-4-aminocyclohexyl)methyl)-4-(tert-butyl)aniline] had a 50% effective concentration (EC50) of 0.1 to 100 nM.

`NC1CC2(C1)CC(Nc1ccc(N3CCN(CC(F)(F)F)CC3)cc1)C2` (centres unmarked) [Compound 505, N2-(4-(4-(2,2,2-trifluoroethyl)piperazin-1-yl)phenyl)spiro[3.3]heptane-2,6-diamine]: the EC50 was 0.1 to 100 nM.

`Cc1cc(N2CCC(C(F)(F)F)CC2)nc(F)c1NC1CCC(CN)CC1` (centres unmarked) [Compound 22, N-(4-(aminomethyl)cyclohexyl)-2-fluoro-4-methyl-6-(4-(trifluoromethyl)piperidin-1-yl)pyridin-3-amine] yielded an EC50 of 100 to 1000 nM.

In turn, `CC(C)(C)c1ccc(NC[C@H]2CC[C@H](NCCO)CC2)cc1` [Compound 323, 2-(((1r,4r)-4-(((4-(tert-butyl)phenyl)amino)methyl)cyclohexyl)amino)ethan-1-ol] registered a half-maximal effective concentration (EC50) of 0.1 to 100 nM.

Turning to `CC1(C)CCC(c2ccc(NC3CCC(O)C3)cc2)CC1` (centres unmarked) [Compound 151], the EC50 was 0.1 to 100 nM.

Take `CCCc1ccc(NC[C@H]2CC[C@H](N)CC2)cc1` [Compound 315, N-(((1r,4r)-4-aminocyclohexyl)methyl)-4-propylaniline]: the concentration for a half-maximal effect (EC50) is 0.1 to 100 nM.

The molecule `NC1CCC(Nc2ccc(N3CCC(C(F)(F)F)CC3)cc2)CC1` (centres unmarked) [Compound 40, N1-(4-(4-(trifluoromethyl)piperidin-1-yl)phenyl)cyclohexane-1,4-diamine] registered an EC50 of 0.1 to 100 nM.

`NC1CCC(Nc2ccc(N3CCC(C(F)(F)F)CC3)cc2F)CC1` (centres unmarked) [Compound 71, N1-(2-fluoro-4-(4-(trifluoromethyl)piperidin-1-yl)phenyl)cyclohexane-1,4-diamine]: the EC50 was in the range of 0.1 to 100 nM.

`CC1CN(c2ccc(NC[C@H]3CC[C@H](N)CC3)cc2)CC(C)N1CC(F)(F)F` (some centres unmarked) [Compound 467, N-(((1r,4r)-4-aminocyclohexyl)methyl)-4-(3,5-dimethyl-4-(2,2,2-trifluoroethyl)piperazin-1-yl)aniline] returned an EC50 of 0.1 to 100 nM.

`CC(C)(C)c1ccc(NC2CCC(NCC(O)CN)CC2)cc1` (centres unmarked) [Compound 349A, 1-amino-3-((4-((4-(tert-butyl)phenyl)amino)cyclohexyl)amino)propan-2-ol] had an EC50 of 0.1 to 100 nM.

Molecule `CC(C)(C)Nc1ccc(N2CCC(C(F)(F)F)CC2)cc1` [Compound 11, N-(tert-butyl)-4-(4-(trifluoromethyl)piperidin-1-yl)aniline] gave an EC50 of 100 to 1000 nM.

On to `CC(C)(C)c1ccc(NC2CCC(NC(N)=O)CC2)cc1` (centres unmarked) [Compound 266A, 1-(4-((4-(tert-butyl)phenyl)amino)cyclohexyl)urea], for which the 50% effective concentration (EC50) lay within 100 to 1000 nM.

In turn, `CC1CN(c2ccc(NC3CCCCC3N)c(F)c2)CC(C)O1` (centres unmarked) [Compound 441, N1-(4-(2,6-dimethylmorpholino)-2-fluorophenyl)cyclohexane-1,2-diamine] came in with an EC50 of 100 to 1000 nM.

As to `Cc1nc(N2CCC(C(F)(F)F)CC2)ccc1NC[C@H]1CC[C@H](NC(=O)C2CNC(=O)C2)CC1` (some centres unmarked) [Compound 378, N-((1r,4r)-4-(((2-methyl-6-(4-(trifluoromethyl)piperidin-1-yl)pyridin-3-yl)amino)methyl)cyclohexyl)-5-oxopyrrolidine-3-carboxamide], the EC50 was in the range of 0.1 to 100 nM.

`COCCN(C)CCNc1ccc(C(C)(C)C)cc1` [Compound 211, N1-(4-(tert-butyl)phenyl)-N2-(2-methoxyethyl)-N2-methylethane-1,2-diamine] gave an EC50 of 1000 to 10000 nM.

On to `NC1CCC(Nc2ccncc2)CC1` (centres unmarked) [Compound 199, N1-(pyridin-4-yl)cyclohexane-1,4-diamine], for which the EC50 lay in the range of 1000 to 10000 nM.

`CC1CN(c2ccc(NC3CCCCC3N)cc2)CC(C)O1` (centres unmarked) [Compound 440, N1-(4-(2,6-dimethylmorpholino)phenyl)cyclohexane-1,2-diamine] came in with an EC50 of 100 to 1000 nM.

On to `CC(C)(C)c1ccc(NC2CCC(CNC(=O)C3CNC(=O)C3)CC2)cc1` (single isomer, unassigned) [Compound 144A, N-((4-((4-(tert-butyl)phenyl)amino)cyclohexyl)methyl)-5-oxopyrrolidine-3-carboxamide], for which the EC50 lay in the range of 100 to 1000 nM.

In turn, `CCCCCCc1cc(NC2CCC(N)CC2)ccc1C(C)(C)C` (centres unmarked) [Compound 253A, N1-(4-(tert-butyl)-3-hexylphenyl)cyclohexane-1,4-diamine] gave a 50% effective concentration (EC50) of 0.1 to 100 nM.

Regarding `CC(C)(C)c1ccc(NC2CCC(NCCCCO)CC2)cc1` (centres unmarked) [Compound 321, 4-((4-((4-(tert-butyl)phenyl)amino)cyclohexyl)amino) butan-1-ol], the EC50 fell in the range of 100 to 1000 nM.

Molecule `CC1(C)CCC(c2ccc(NC3CCC(N)CC3)cc2)CC1` (centres unmarked) [Compound 74, N1-(4-(4,4-dimethylcyclohexyl)phenyl)cyclohexane-1,4-diamine] gave an EC50 of 0.1 to 100 nM.

`COc1nc(N2C[C@@H](C)O[C@@H](C)C2)ccc1NC[C@H]1CC[C@H](N)CC1` [Compound 511, N-(((1r,4R)-4-aminocyclohexyl)methyl)-6-((2S,6R)-2,6-dimethylmorpholino)-2-methoxypyridin-3-amine] had an EC50 of 0.1 to 100 nM.

As to `Cc1cc(N2CC(C)CC(C)C2)ccc1NC[C@H]1CC[C@H](N)CC1` (some centres unmarked) [Compound 418], the EC50 fell in the range of 0.1 to 100 nM.

As to `CC1CN(c2ccc(NC3C4CC5CC3CC(N)(C5)C4)cc2)CC(C)O1` (centres unmarked) [Compound 421A, N^4-(4-(2,6-dimethylmorpholino)phenyl)adamantane-1,4-diamine], the EC50 lay in the range of 0.1 to 100 nM.

`CC1CN(c2ccc3cc(NC4CC5(CC(N)C5)C4)ccc3n2)CC(C)N1C(=O)C(F)(F)F` (centres unmarked) [Compound 566]: the concentration giving a half-maximal response (EC50) was in the range of 0.1 to 100 nM.

`CC(C)(C)c1ccc(NC2CCC(N)CC2)cc1F` (centres unmarked) [Compound 242A, N1-(4-(tert-butyl)-3-fluorophenyl)cyclohexane-1,4-diamine 2,2,2-trifluoroacetate] showed an EC50 of 0.1 to 100 nM.

For `NC1CCC(Nc2ccc(Br)cc2)CC1` (centres unmarked) [Compound 165, N1-(4-bromophenyl)cyclohexane-1,4-diamine], the concentration for a half-maximal effect (EC50) was in the range of 1000 to 10000 nM.

Still in this test, the particulars now being: Homo sapiens, HT-1080, 20 h, ferroptosis inducer RSL3, 20 hours, ferroptosis inhibitory activity, Table 3.
In turn, `Cc1nc(N2CC(C)N(CC(F)(F)F)C(C)C2)ccc1NC1CC2CCC(C1)N2` (centres unmarked) [Compound 643, N-(6-(3,5-dimethyl-4-(2,2,2-trifluoroethyl)piperazin-1-yl)-2-methylpyridin-3-yl)-8-azabicyclo[3.2.1]octan-3-amine] gave an EC50 of 0.1 to 100 nM.

`CNC1CC2(C1)CC(Nc1ccc(N3C[C@@H](C)O[C@@H](C)C3)nc1C)C2` (stereo partly drawn) [Compound 605, N^2-(6-((2R,6S)-2,6-dimethylmorpholino)-2-methylpyridin-3-yl)-N^6-methylspiro [3.3]heptane-2,6-diamine] displayed an EC50 of 0.1 to 100 nM.

The same test, now with this note: Homo sapiens, ferroptosis inducer RSL3, 20 hours, ferroptosis inhibitory activity, Table 2.
In turn, `CN1CCC(N2CCC(Nc3ccc(C4CCC(C)(C)CC4)cc3)CC2)CC1` [Compound 100, N-(4-(4,4-dimethylcyclohexyl)phenyl)-1′-methyl-[1,4′-bipiperidin]-4-amine] registered an EC50 of 100 to 1000 nM.

`CC(C)C1CCN(c2ncc(NC3CCC(CN)CC3)cn2)CC1` (centres unmarked) [Compound 24A, N-(4-(aminomethyl)cyclohexyl)-2-(4-isopropylpiperidin-1-yl)pyrimidin-5-amine] returned an EC50 of 0.1 to 100 nM.

Regarding `CCC(C)(C)c1ccc(NC2CCC(N)CC2)cc1` (single isomer, unassigned) [Compound 232A, N1-(4-(tert-pentyl)phenyl)cyclohexane-1,4-diamine], the half-maximal effective concentration (EC50) lay within 0.1 to 100 nM.

Staying with this test, now noted: ferroptosis inducer RSL3, 20 hours, ferroptosis inhibitory activity, Table 2.
In turn, `CC(C)(C)c1ccc(NCC2CC(N)C2)cc1` (single isomer, unassigned) [Compound 335A, N-((3-aminocyclobutyl)methyl)-4-(tert-butyl)aniline] returned an EC50 of 100 to 1000 nM.
